Results: patent publication US7205382B2, “Peptides, the production and use thereof for binding immunoglobulins” (Fresenius Medical Care Affina GmbH, priority 2000, dated 2007)
Bridge positions count the residues as written; N and C are the ends. Square brackets hold non-standard residues; d marks the D form. Ends that are not written are not given here. cellulose = not defined here; βAla = NCCC(=O)O

How the values were obtained:
Assay type in all cases: binding
Design in all cases: key: No binding of immunoglobulin for the defined peptide variant, detection negative: 0; Binding of immunoglobulin for the defined peptide variant, detection positive: +
[1] = tested on: serum albumin; test: Cellulose-immobilized 13-mer peptide variants incubated with serum albumin (negative control), anti-human IgG-AP detection; conditions: blocking buffer without addition, 3 h room temperature
How it was run: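 SPOT-type 13-mer peptides on cellulose with a (βA)(βA) spacer, blocked in 5% saccharose/4% BSA in T-TBS pH 8.0. Incubated 3 h at RT with human IgG-Fc (1 μg/ml) or human serum/plasma (1:10,000), or with blocking buffer alone as the albumin specificity control. Bound IgG detected with AP-anti-human IgG (1.2 μg/ml) and NBT/BCIP colorimetric development at pH 9.5.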

[2] = tested on: immunoglobulins in human plasma; test: Cellulose-immobilized 13-mer peptide variants incubated with human plasma, anti-human IgG-AP detection; conditions: human plasma as sample, diluted 1:10,000 in blocking buffer, 3 h room temperature
How it was run: (§1)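 Membrane-bound peptides, spaced by two β-alanines, are probed with 1 μg/ml IgG-Fc or 1:10,000 serum for 3 h at room temperature; blocking buffer alone acts as control. Detection uses anti-human IgG-AP (1.2 μg/ml) and NBT/BCIP.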

[3] = tested on: human IgG-Fc; test: Cellulose-immobilized 13-mer peptide variants incubated with human IgG-Fc, anti-human IgG-AP detection; conditions: IgG-Fc 1 μg/ml in blocking buffer, 3 h room temperature
How it was run: as §1

Row | Result for incubation with serum albumin (immunoglobulin binding detection) [1] | Result for incubation with human plasma (immunoglobulin binding detection) [2] | Result for incubation with human IgG-Fc (immunoglobulin binding detection) [3] | Substance
1 | 0 | 0 | + | 06E: cellulose-bound 13-mer variant DCAWHEGELVWCT-(βA)(βA) (DCAWHEGELVWCT[βAla][βAla]; disulfide 2-12 (inferred); not fully specified (N-terminus); printed as DCAWHEGELVWCT-(βA)(βA); also: cellulose-bound)
2 | 0 | 0 | + | 01L: cellulose-bound 13-mer variant LCAWHLGELVWCT-(βA)(βA) (LCAWHLGELVWCT-{βAla-βAla-cellulose}; disulfide 2-12 (inferred); reading uncertain; also: printed as LCAWHLGELVWCT-(βA)(βA))
3 | 0 | 0 | 0 | 11T: cellulose-bound 13-mer variant DCAWHLGELVTCT-(βA)(βA)
4 | 0 | 0 | 0 | 09A: cellulose-bound 13-mer variant DCAWHLGEAVWCT-(βA)(βA) (DCAWHLGEAVWCT-{βAla-βAla-cellulose}; disulfide 2-12 (inferred); reading uncertain; also: printed as DCAWHLGEAVWCT-(βA)(βA))
5 | 0 | 0 | 0 | 03N: cellulose-bound 13-mer variant DCNWHLGELVWCT-(βA)(βA) (DCNWHLGELVWCT-{βAla-βAla-cellulose}; disulfide 2-12 (inferred); reading uncertain; also: printed as DCNWHLGELVWCT-(βA)(βA))
6 | 0 | 0 | 0 | 05C: cellulose-bound 13-mer variant DCAWCLGELVWCT-(βA)(βA) (not fully specified (N-terminus, C-terminus, bridges); printed as DCAWCLGELVWCT-(βA)(βA); cysteine pairing not given here; also: cellulose-bound)
7 | 0 | 0 | 0 | 05M: cellulose-bound 13-mer variant DCAWMLGELVWCT-(βA)(βA) (disulfide 2-12 (inferred); not fully specified (N-terminus, C-terminus); printed as DCAWMLGELVWCT-(βA)(βA); also: cellulose-bound)
8 | 0 | 0 | 0 | 12F: cellulose-bound 13-mer variant DCAWHLGELVWFT-(βA)(βA) (DCAWHLGELVWFT-{βAla-βAla-cellulose}; not fully specified; printed as DCAWHLGELVWFT-(βA)(βA); reading uncertain)
9 | 0 | 0 | + | 01S: cellulose-bound 13-mer variant SCAWHLGELVWCT-(βA)(βA) (SCAWHLGELVWCT-{βAla-βAla-cellulose}; disulfide 2-12 (inferred); reading uncertain; also: printed as SCAWHLGELVWCT-(βA)(βA))
10 | 0 | 0 | 0 | 02M: cellulose-bound 13-mer variant DMAWHLGELVWCT-(βA)(βA) (DMAWHLGELVWCT[βAla][βAla]; not fully specified; printed as DMAWHLGELVWCT-(βA)(βA); also: cellulose-bound)
11 | 0 | 0 | 0 | 06P: cellulose-bound 13-mer variant DCAWHPGELVWCT-(βA)(βA) (DCAWHPGELVWCT-{βAla-βAla-cellulose}; disulfide 2-12 (inferred); not fully specified (N-terminus); printed as DCAWHPGELVWCT-(βA)(βA); reading uncertain)
12 | 0 | + | + | 06N: cellulose-bound 13-mer variant DCAWHNGELVWCT-(βA)(βA) (DCAWHNGELVWCT-{βAla-βAla-cellulose}; disulfide 2-12 (inferred); not fully specified (N-terminus); printed as DCAWHNGELVWCT-(βA)(βA); reading uncertain)
13 | 0 | 0 | 0 | 02P: cellulose-bound 13-mer variant DPAWHLGELVWCT-(βA)(βA) (DPAWHLGELVWCT[βAla][βAla]; not fully specified; printed as DPAWHLGELVWCT-(βA)(βA); also: cellulose-bound)
14 | 0 | 0 | 0 | 02R: cellulose-bound 13-mer variant DRAWHLGELVWCT-(βA)(βA) (DRAWHLGELVWCT[βAla][βAla]; not fully specified; printed as DRAWHLGELVWCT-(βA)(βA); also: cellulose-bound)
15 | 0 | 0 | 0 | 10K: cellulose-bound 13-mer variant DCAWHLGELKWCT-(βA)(βA) (DCAWHLGELKWCT-{βAla-βAla-cellulose}; disulfide 2-12 (inferred); reading uncertain; also: printed as DCAWHLGELKWCT-(βA)(βA))
16 | 0 | 0 | + | 01H: cellulose-bound 13-mer variant HCAWHLGELVWCT-(βA)(βA) (HCAWHLGELVWCT-{βAla-βAla-cellulose}; disulfide 2-12 (inferred); reading uncertain; also: printed as HCAWHLGELVWCT-(βA)(βA))
17 | 0 | + | + | 06K: cellulose-bound 13-mer variant DCAWHKGELVWCT-(βA)(βA) (DCAWHKGELVWCT-{βAla-βAla-cellulose}; disulfide 2-12 (inferred); not fully specified (N-terminus); printed as DCAWHKGELVWCT-(βA)(βA); reading uncertain)
18 | 0 | 0 | 0 | 11V: cellulose-bound 13-mer variant DCAWHLGELVVCT-(βA)(βA)
19 | 0 | 0 | 0 | 03G: cellulose-bound 13-mer variant DCGWHLGELVWCT-(βA)(βA) (DCGWHLGELVWCT-{βAla-βAla-cellulose}; disulfide 2-12 (inferred); reading uncertain; also: printed as DCGWHLGELVWCT-(βA)(βA))
20 | 0 | 0 | 0 | 06C: cellulose-bound 13-mer variant DCAWHCGELVWCT-(βA)(βA) (DCAWHCGELVWCT[βAla][βAla]; not fully specified (N-terminus); printed as DCAWHCGELVWCT-(βA)(βA); cysteine pairing not given here; also: cellulose-bound)
21 | 0 | 0 | + | 06A: cellulose-bound 13-mer variant DCAWHAGELVWCT-(βA)(βA) (DCAWHAGELVWCT[βAla][βAla]; disulfide 2-12 (inferred); not fully specified (N-terminus); printed as DCAWHAGELVWCT-(βA)(βA); also: cellulose-bound)
22 | 0 | 0 | 0 | 11Q: cellulose-bound 13-mer variant DCAWHLGELVQCT-(βA)(βA)
